From PubChem BioAssay AID2060626 (Molecular Pharmacology Branch, DTP, NCI, 2025)

System: 168753-222-R-J1-PDC complex spheroid viability
Test: Anticancer human tumor 168753-222-R-J1-PDC patient-derived bladder carcinoma cell line growth inhibition [CLK]
Details: for IC50: curve of first compound; for viability, T/C: stronger effect = lower value
Method in brief: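 Patient-derived tumor cells grown as complex spheroids with HUVEC endothelial cells and mesenchymal stem cells, treated with drug combinations. Concentrations descend in half-log steps from near clinical Cmax, or from 10 microM if Cmax unknown.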

[1] = second compound 0.0316 µM, first compound 0.0316 µM
[2] = second compound 0.0316 µM, first compound 0.1 µM
[3] = second compound 0.1 µM, first compound 0.0316 µM
[4] = second compound 0.1 µM, first compound 0.1 µM
[5] = second compound 0.316 µM, first compound 0.0316 µM
[6] = second compound 0.316 µM, first compound 0.1 µM
[7] = second compound 1 µM, first compound 0.0316 µM
[8] = second compound 1 µM, first compound 0.1 µM
[9] = second compound 3.16 µM, first compound 0.0316 µM
[10] = second compound 3.16 µM, first compound 0.1 µM
[11] = second compound 10 µM, first compound 0.0316 µM
[12] = second compound 10 µM, first compound 0.1 µM
[13] = second compound 0.0316 µM, first compound 0.316 µM
[14] = second compound 0.0316 µM, first compound 1 µM
[15] = second compound 0.0316 µM, first compound 3.16 µM
[16] = second compound 0.0316 µM, first compound 10 µM
[17] = second compound 0.1 µM, first compound 0.316 µM
[18] = second compound 0.1 µM, first compound 1 µM
[19] = second compound 0.1 µM, first compound 3.16 µM
[20] = second compound 0.1 µM, first compound 10 µM
[21] = second compound 0.316 µM, first compound 0.316 µM
[22] = second compound 0.316 µM, first compound 1 µM
[23] = second compound 0.316 µM, first compound 3.16 µM
[24] = second compound 0.316 µM, first compound 10 µM
[25] = second compound 1 µM, first compound 0.316 µM
[26] = second compound 1 µM, first compound 1 µM
[27] = second compound 1 µM, first compound 3.16 µM
[28] = second compound 1 µM, first compound 10 µM
[29] = second compound 3.16 µM, first compound 0.316 µM
[30] = second compound 3.16 µM, first compound 1 µM
[31] = second compound 3.16 µM, first compound 3.16 µM
[32] = second compound 3.16 µM, first compound 10 µM
[33] = second compound 10 µM, first compound 0.316 µM
[34] = second compound 10 µM, first compound 1 µM
[35] = second compound 10 µM, first compound 3.16 µM
[36] = second compound 10 µM, first compound 10 µM
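Further: viability measured after seven days of drug exposure.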
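Wherever viability, T/C is given: luminescence signal used as surrogate for viable cell amount; 100% = DMSO vehicle control wells.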

`Cn1ncnc1[C@H]1c2n[nH]c(=O)c3cc(F)cc(c23)N[C@@H]1c1ccc(F)cc1` + CN1CCN(c2cc(C(=O)Nc3cc4cc(-c5cnn(C)c5)ccc4cn3)ccn2)CC1 was tested. Which IC50 (second compound 0.0316 µM) did it give?
The IC50 was greater than 100 nM.

And the IC50 (second compound 0.1 µM)?
The IC50 was 4.08 nM.

And the IC50 (second compound 0.316 µM)?
Its IC50 is less than 0.316 nM.

What about the IC50 (second compound 1 µM) of the same compound?
The IC50 was less than 0.316 nM.

What about the IC50 (second compound 3.16 µM) of the same compound?
The IC50 was less than 0.316 nM.

What about the IC50 (second compound 10 µM) of the same compound?
Its IC50 is less than 0.316 nM.

And the viability, T/C (second compound 0.0316 µM, first compound 0.000316 µM)?
The viability, T/C was 90.2%.

And the viability, T/C (second compound 0.0316 µM, first compound 0.001 µM)?
Its viability, T/C is 95.1%.

What about the viability, T/C (second compound 0.0316 µM, first compound 0.00316 µM) of the same compound?
The viability, T/C was 70.5%.

And the viability, T/C (second compound 0.0316 µM, first compound 0.01 µM)?
The viability, T/C was 101%.

What about the viability, T/C [1] of the same compound?
Its viability, T/C is 97.9%.

And the viability, T/C [2]?
The viability, T/C was 58.2%.

What about the viability, T/C (second compound 0.1 µM, first compound 0.000316 µM) of the same compound?
The viability, T/C was 58.7%.

What about the viability, T/C (second compound 0.1 µM, first compound 0.001 µM) of the same compound?
The viability, T/C was 72.5%.

And the viability, T/C (second compound 0.1 µM, first compound 0.00316 µM)?
The viability, T/C was 54.7%.

What about the viability, T/C (second compound 0.1 µM, first compound 0.01 µM) of the same compound?
The viability, T/C was 18.7%.

And the viability, T/C [3]?
The viability, T/C was 25.8%.

What about the viability, T/C [4] of the same compound?
The viability, T/C was 56%.

And the viability, T/C (second compound 0.316 µM, first compound 0.000316 µM)?
The viability, T/C was 9.67%.

What about the viability, T/C (second compound 0.316 µM, first compound 0.001 µM) of the same compound?
The viability, T/C was 9.41%.

What about the viability, T/C (second compound 0.316 µM, first compound 0.00316 µM) of the same compound?
The viability, T/C was 8.77%.

What about the viability, T/C (second compound 0.316 µM, first compound 0.01 µM) of the same compound?
The viability, T/C was 7.96%.

What about the viability, T/C [5] of the same compound?
Its viability, T/C is 8.57%.

And the viability, T/C [6]?
The viability, T/C was 8.4%.

What about the viability, T/C (second compound 1 µM, first compound 0.000316 µM) of the same compound?
Its viability, T/C is 0.18%.

What about the viability, T/C (second compound 1 µM, first compound 0.001 µM) of the same compound?
The viability, T/C was 0.28%.

What about the viability, T/C (second compound 1 µM, first compound 0.00316 µM) of the same compound?
Its viability, T/C is 0.18%.

What about the viability, T/C (second compound 1 µM, first compound 0.01 µM) of the same compound?
Its viability, T/C is 0.53%.

What about the viability, T/C [7] of the same compound?
Its viability, T/C is 0.24%.

What about the viability, T/C [8] of the same compound?
Its viability, T/C is 0.51%.

What about the viability, T/C (second compound 3.16 µM, first compound 0.000316 µM) of the same compound?
Its viability, T/C is 1.24%.

What about the viability, T/C (second compound 3.16 µM, first compound 0.001 µM) of the same compound?
The viability, T/C was 0.1%.

What about the viability, T/C (second compound 3.16 µM, first compound 0.00316 µM) of the same compound?
Its viability, T/C is 0.18%.

What about the viability, T/C (second compound 3.16 µM, first compound 0.01 µM) of the same compound?
The viability, T/C was 0.06%.

What about the viability, T/C [9] of the same compound?
Its viability, T/C is 0.26%.

And the viability, T/C [10]?
Its viability, T/C is 0.88%.

And the viability, T/C (second compound 10 µM, first compound 0.000316 µM)?
Its viability, T/C is 0.11%.

And the viability, T/C (second compound 10 µM, first compound 0.001 µM)?
The viability, T/C was 0.27%.

And the viability, T/C (second compound 10 µM, first compound 0.00316 µM)?
Its viability, T/C is 0.25%.

What about the viability, T/C (second compound 10 µM, first compound 0.01 µM) of the same compound?
The viability, T/C was 0.1%.

What about the viability, T/C [11] of the same compound?
Its viability, T/C is 0.21%.

What about the viability, T/C [12] of the same compound?
The viability, T/C was 0.19%.

`Nc1ccn(C2OC(CO)C(O)C2(F)F)c(=O)n1` (stereo unspecified) + CN1CCN(c2cc(C(=O)Nc3cc4cc(-c5cnn(C)c5)ccc4cn3)ccn2)CC1 was tested. Which IC50 (second compound 0.0316 µM) did it give?
Its IC50 is 51.8 nM.

And the IC50 (second compound 0.1 µM)?
Its IC50 is 46 nM.

What about the IC50 (second compound 0.316 µM) of the same compound?
The IC50 was less than 31.6 nM.

And the IC50 (second compound 1 µM)?
Its IC50 is less than 31.6 nM.

What about the IC50 (second compound 3.16 µM) of the same compound?
The IC50 was less than 31.6 nM.

And the IC50 (second compound 10 µM)?
The IC50 was less than 31.6 nM.

What about the viability, T/C [1] of the same compound?
The viability, T/C was 65.4%.

And the viability, T/C [2]?
The viability, T/C was 28.6%.

What about the viability, T/C [13] of the same compound?
The viability, T/C was 21.3%.

And the viability, T/C [14]?
The viability, T/C was 19%.

What about the viability, T/C [15] of the same compound?
Its viability, T/C is 15.6%.

And the viability, T/C [16]?
Its viability, T/C is 16%.

And the viability, T/C [3]?
Its viability, T/C is 63.6%.

And the viability, T/C [4]?
The viability, T/C was 21.3%.

And the viability, T/C [17]?
The viability, T/C was 15.4%.

And the viability, T/C [18]?
Its viability, T/C is 11.6%.

What about the viability, T/C [19] of the same compound?
Its viability, T/C is 10.2%.

What about the viability, T/C [20] of the same compound?
The viability, T/C was 11.8%.

And the viability, T/C [5]?
The viability, T/C was 9.99%.

And the viability, T/C [6]?
Its viability, T/C is 10.4%.

What about the viability, T/C [21] of the same compound?
Its viability, T/C is 9.64%.

What about the viability, T/C [22] of the same compound?
The viability, T/C was 9.63%.

What about the viability, T/C [23] of the same compound?
The viability, T/C was 10.7%.

And the viability, T/C [24]?
The viability, T/C was 12%.

And the viability, T/C [7]?
The viability, T/C was 0.28%.

What about the viability, T/C [8] of the same compound?
Its viability, T/C is 0.18%.

What about the viability, T/C [25] of the same compound?
The viability, T/C was 0.16%.

And the viability, T/C [26]?
The viability, T/C was 0.12%.

And the viability, T/C [27]?
Its viability, T/C is 0.57%.

And the viability, T/C [28]?
Its viability, T/C is 0.21%.

And the viability, T/C [9]?
The viability, T/C was 0.1%.

And the viability, T/C [10]?
Its viability, T/C is 0.12%.

What about the viability, T/C [29] of the same compound?
Its viability, T/C is 0.43%.

And the viability, T/C [30]?
The viability, T/C was 0.07%.

And the viability, T/C [31]?
Its viability, T/C is 0.15%.

And the viability, T/C [32]?
The viability, T/C was 0.1%.

And the viability, T/C [11]?
Its viability, T/C is 0.14%.

What about the viability, T/C [12] of the same compound?
Its viability, T/C is 0.14%.

And the viability, T/C [33]?
Its viability, T/C is 1.05%.

What about the viability, T/C [34] of the same compound?
Its viability, T/C is 1.61%.

And the viability, T/C [35]?
Its viability, T/C is 0.42%.

And the viability, T/C [36]?
The viability, T/C was 0.9%.

Which results are given for `O=c1[nH]cc(F)c(=O)[nH]1` + CN1CCN(c2cc(C(=O)Nc3cc4cc(-c5cnn(C)c5)ccc4cn3)ccn2)CC1?
IC50 (second compound 0.0316 µM): 8930 nM; IC50 (second compound 0.1 µM): 160 nM; IC50 (second compound 0.316 µM): < 31.6 nM; IC50 (second compound 1 µM): < 31.6 nM; IC50 (second compound 3.16 µM): < 31.6 nM; IC50 (second compound 10 µM): < 31.6 nM; viability, T/C [1]: 100%; viability, T/C [2]: 91.9%; viability, T/C [13]: 78.8%; viability, T/C [14]: 108%; viability, T/C [15]: 95.4%; viability, T/C [16]: 45.2%; viability, T/C [3]: 72%; viability, T/C [4]: 62.8%; viability, T/C [17]: 15.2%; viability, T/C [18]: 45.6%; viability, T/C [19]: 36.3%; viability, T/C [20]: 29%; viability, T/C [5]: 10.5%; viability, T/C [6]: 10%; viability, T/C [21]: 8.13%; viability, T/C [22]: 8.71%; viability, T/C [23]: 8.45%; viability, T/C [24]: 8.48%; viability, T/C [7]: 0.22%; viability, T/C [8]: 0.19%; viability, T/C [25]: 0.15%; viability, T/C [26]: 0.18%; viability, T/C [27]: 0.33%; viability, T/C [28]: 0.58%; viability, T/C [9]: 0.97%; viability, T/C [10]: 0.11%; viability, T/C [29]: 0.09%; viability, T/C [30]: 0.19%; viability, T/C [31]: 1.18%; viability, T/C [32]: 1.57%; viability, T/C [11]: 0.09%; viability, T/C [12]: 0.24%; viability, T/C [33]: 0.24%; viability, T/C [34]: 0.82%; viability, T/C [35]: 1.41%; viability, T/C [36]: 1.15%
